Results as given in patent US20220211861A1, “DRUG CONJUGATES AND METHODS OF USING SAME” (The Board of Trustees of the Leland Staford Junior …, priority 2019, published 2022).
*1 amine or outer side, *2 acyl side, *3 side chain or, on linkers, in order; H or OH if unused. Where a SMILES comes first, the peptide text is derived from it. Bridges are numbered along the chain shown (N, C = ends). Roman numbers before positions name the chains, in order. [ ]: non-standard residue; d: D form. The star is where a group is joined. X1 = O=C([C@H](CCCn1nnc2c1-c1ccccc1CN([*:3])c1ccccc1-2)N[*:1])[*:2]; Dolaproine = CO[C@@H]([C@@H]1CCCN1)[C@@H](C)C(=O)O; X3 = O=C(CCC(=O)[*:1])NCCOCCOCCOCCC(=O)[*:2]; Dil = CC[C@H](C)[C@H](NC)[C@@H](CC(=O)O)OC; PABC = O=C(OCc1ccc(N[*:1])cc1)[*:2]; X2 = C[C@@H](N*)[C@@H](O)c1ccccc1; Cit = NC(=O)NCCC[C@H](N)C(=O)O; NMeV = CN[C@H](C(=O)O)C(C)C

Tests used:
[1] = test system: RFP-expressing U87MG cells; assay: Inhibition of cell proliferation and cytotoxicity over time (IncuCyte, SYTOX green); format: cell-based; details: only 3 h of exposure
Experimental: To assess the activity of each drug conjugate in a model more representative of in vivo therapy, a similar assay was set up incubating RFP-expressing U87MG cells with SYTOX green and imaging every 4 h. After several time points, cells were washed and media was replaced with either fresh, drug-containing media or fresh, drug-free media (FIG. 14). All conjugates maintained high potency and inhibited proliferation after only 24 h exposure (FIG. 14B). […] The inhibition of cellular proliferation mirrored the measured cytotoxicity. All conjugates induced nearly 100% cell death when incubated without washing, with a wash of drug-containing media, or with washing after 24 h (FIG. 14D, 14E). Each construct was also evaluated under an even more stringent condition, with washing after 3 h of exposure. […] KFDC and KADC experienced substantial reductions in their respective potencies and each inhibited ˜50% of cell proliferation.
RFP-expressing U87MG cells were seeded in a 96-well plate (Corning) at a density of 2.5×10^3 cells per well and grown overnight. Cells were then treated with 200 μL of fresh media containing 10 nM Cytox Green (ThermoFisher) and KDC, KFDC, KADC, or MMAE, at the approximate ED50 of 10 nM or at the saturating concentration of 100 nM. Cells were incubated in an IncuCyte S3 Live-Cell Analysis System for 5 d with images collected every 4 h. […]

U87MG hip xenografts = assay: Therapeutic efficacy study, once weekly for four weeks, tumors implanted with Matrigel; format: in vivo, Nu/Nu mice
Experimental: To further investigate each compound, several changes were made to the experimental design. Because of the KDC's rapid systemic clearance, a significant portion of the injected dose is likely lost and the ˜0.6 mg/kg dose was therefore increased substantially. Because dosages for chemotherapeutics are conventionally determined as mass of chemotherapeutic per patient body surface area, a more clinically relevant comparison of equal mass was selected over an equimolar comparison. Next, a once-per-week dosing regimen was selected to coincide with realistic clinical dosing considerations. Finally, tumors were implanted with Matrigel matrix to increase tumor growth and with only 2.5×10^6 cells per injection to decrease initial tumor necrosis. Mice bearing U87MG hip xenografts were equally distributed into the following treatment groups with intravenous injections given once weekly for 4 weeks: KDC, KFDC, KADC, unconjugated proteins, or a PBS control. Each drug conjugate was also evaluated at a low dose and a high dose.
For tumor cell implantation, female Nu/Nu mice (Charles River Laboratory) were anesthetized with 2.5% isoflurane by inhalation with a flow rate of 1 L/min. A volume of 200 μL of 50/50 PBS/Matrigel (Corning), containing 2.5×10^6 U87MG cells, was injected subcutaneously into the right flank. Tumors were allowed to grow for 7 days until reaching a size of approximately 35 mm^2. For therapeutic efficacy studies, mice were binned into experimental groups to ensure equivalent average tumor sizes and starting body weights across all groups.
Mice bearing U87MG flank xenografts, as described above, were injected intravenously with PBS, KDC, KFDC, KADC, or controls proteins. Treatments were administered once per week for four weeks. Tumors were measured three times per week using digital calipers and animal weights were recorded on each dosing day to monitor for potential weight loss as a measure of compound toxicity. Tumor area was calculated as the longest axis of the tumor multiplied by the perpendicular axis. Euthanasia criteria were defined as a tumor area greater than 150 mm^2 or a loss of 20% body weight.

U87MG tumor spheroids = assay: Endpoint spheroid killing assay (SYTOX green, plate reader); format: cell-based; details: 100 nM
Experimental: Next, this in vitro model was modified to test if similar cell killing could be visualized in addition to confocal imaging experiments. Spheroids were treated with drug conjugates or MMAE at a range of concentrations. After incubating with drug conjugates for 5 d, media was replaced with fresh media containing SYTOX green. Fluorescence measured by a BioTek Synergy H4 microtiter plate reader was compared to spheroids treated with lysis buffer. […] To visualize this killing over time, spheroids treated with 50 or 100 nM of drug conjugates or MMAE were imaged every 4 h using an IncuCyte.
Spheroids of U87MG cells were formed by seeding round-bottom, 96-well ultra-low adhesion plates (Corning) with 4×10^3 cells/well and centrifuging at 1000×g for 10 minutes. Spheroids were grown for 2 days before replacing media with 200 μL of fresh media containing 10 nM Cytox Green (ThermoFisher) and a range of concentrations of KDC, KFDC, KADC, or MMAE. After 4 d, trypsin-EDTA was added and cells were placed on a 60 RPM shaker for 10 min to disrupt spheroids. Green fluorescence was measured using was measured with a BioTek Synergy H4 microtiter plate reader. Percent toxicity was calculated by comparing green fluorescence to spheroids treated with lysis buffer.

[2] = 1 mg/kg once weekly for 4 weeks
[3] = 5 mg/kg once weekly for 4 weeks

What does the source list for `CC[C@H](C)[C@@H]([C@@H](CC(=O)N1CCC[C@H]1[C@H](OC)[C@@H](C)C(=O)N[C@H](C)[C@@H](O)c1ccccc1)OC)N(C)C(=O)[C@@H](NC(=O)[C@H](C(C)C)N(C)C(=O)OCc1ccc(NC(=O)[C@H](CCCNC(N)=O)NC(=O)[C@@H](NC(=O)CCOCCOCCOCCNC(=O)CCC(=O)N2Cc3ccccc3-c3c(nnn3CCC[C@@H]3NC(=O)[C@@H]4CSSC[C@@H]5NC(=O)[C@H](C(C)C)NC(=O)[C@H](CSSC[C@H](NC(=O)CN)C(=O)N6CCC[C@H]6C(=O)N[C@@H](CCCNC(=N)N)C(=O)N6CCC[C@H]6C(=O)N[C@@H](CCCNC(=N)N)C(=O)NCC(=O)N[C@@H](CC(=O)O)C(=O)N[C@@H](CC(N)=O)C(=O)N6CCC[C@H]6C(=O)N6CCC[C@H]6C(=O)N[C@@H](CC(C)C)C(=O)N[C@@H]([C@@H](C)O)C(=O)N4)NC(=O)CNC(=O)[C@H](C)NC(=O)[C@H](CC(C)C)NC(=O)[C@H](CSSC[C@@H](C(=O)NCC(N)=O)NC(=O)[C@H](Cc4ccc(O)cc4)NC(=O)CNC(=O)[C@H](CC(N)=O)NC(=O)[C@@H]4CCCN4C(=O)CNC5=O)NC(=O)[C@H](CC(=O)O)NC(=O)[C@H](CO)NC(=O)[C@H](CC(=O)O)NC(=O)[C@H](CCC(N)=O)NC3=O)-c3ccccc32)C(C)C)cc1)C(C)C` [KDC] (I: H-GCPRPRGDNPPLTC[X1]QDSDCLAGCVCGPNGYCG-NH2 / II: V[Cit][PABC][NMeV]V[Dil][Dolaproine]-X2; disulfide I:2-I:24, I:14-I:26, I:20-I:32; linker I:15-II:N via X3; N-terminus assumed)?
inhibition of proliferation [1]: complete cell inhibition; tumor growth (U87MG hip xenografts; [2]): significantly delayed tumor growth but did not cause tumor regression; tumors regrew after the end of treatment (U87MG hip xenografts; [2]): 5 of 5; efficacy (U87MG hip xenografts; [3]): very effective; tumor regression (U87MG hip xenografts; [3]): 4 of 5; comparison by mass of drug conjugate per kg mouse body weight (U87MG hip xenografts; once weekly for 4 weeks): significantly outperformed both KFDC and KADC; spheroid killing (U87MG tumor spheroids): substantially more killing than KFDC, KADC, or MMAE
